“Also recorded” adds a separate entry of the source.
What was measured:
[1] = tolerance of aqueous oxaliplatinum preparations to contact with PVC-based materials; assay type: physicochemical; details: pharmaceutical preparations in aqueous solution
[2] = accelerated stability study of liquid oxaliplatinum solution packed in flexible bag; assay type: physicochemical; details: for Appearance of the solution / pH / Impurities by HPLC (%) / L-OHP titre/standard (%) / Oxalic acid titre (%): 2 mg/ml solution, 40° C.
[3] = 6 Months, HPLC, PA 11/PP bag, 75% RH
[4] = 12 Months, PA 11/PP bag, 75% RH
[5] = 12 Months, HPLC, PA 11/PP bag, 75% RH
[6] = Week 0, HPLC, PA 11/PP bag, 75% RH
[7] = Week 1, HPLC, PA 11/PP bag, 75% RH
[8] = Week 2, HPLC, PA 11/PP bag, 75% RH
[9] = Week 3, HPLC, PA 11/PP bag, 75% RH
[10] = Week 4, HPLC, PA 11/PP bag, 75% RH
[11] = Week 5, HPLC, PA 11/PP bag, 75% RH
[12] = Week 12, HPLC, PA 11/PP bag, 75% RH

Which “tolerance of contact with PVC-based materials” value [1] does the source give for `O=C1[O][Pt]2([NH][C@@H]3CCCC[C@H]3[NH]2)[O]C1=O` (relative stereo) [oxaliplatinum, cis-oxalato(trans-1-1-diaminocyclohexane) platinum(II)] here?
Its value is “cannot tolerate being in contact with PVC-based materials”.

And the “Appearance of the solution” value ([2]; 6 Months, PA 11/PP bag, 75% RH)?
The value was “Clear,”.

What about the pH ([2]; 6 Months, PA 11/PP bag, 75% RH) of the same compound?
Its pH is 5.20.

What about the “Impurities by HPLC (%)” value [2, 3] of the same compound?
Its value is 0.5%.

And the “L-OHP titre/standard (%)” value [2, 3]?
Its value is 98.9%.

What about the “Oxalic acid titre (%)” value [2, 3] of the same compound?
The value was <0.1%.

And the “Appearance of the solution” value [2, 4]?
The value was “Clear,”.

And the pH [2, 4]?
The pH was 5.30.

What about the “Impurities by HPLC (%)” value [2, 5] of the same compound?
Its value is 0.6%.

What about the “L-OHP titre/standard (%)” value [2, 5] of the same compound?
Its value is 98.5%.

What about the “Oxalic acid titre (%)” value [2, 5] of the same compound?
Its value is <0.1%.

What about the “maximum percentage of apparent impurities” value ([2]; HPLC) of the same compound?
Its value is ≤ 2%.

What about the “Appearance of the solution” value ([2]; Week 0, 100 ml PA 11/PP bag, 75% relative humidity) of the same compound?
Its value is “Clear,”.

And the pH ([2]; Week 0, PA 11/PP bag, 75% RH)?
The pH was 5.56.

What about the “Impurities by HPLC (%)” value [2, 6] of the same compound?
Its value is 0.10%.

And the “L-OHP titre/standard (%)” value [2, 6]?
The value was 99.7%.

And the “Oxalic acid titre (%)” value [2, 6]?
The value was <0.1%.

What about the “Appearance of the solution” value ([2]; Week 1, PA 11/PP bag, 75% RH) of the same compound?
Its value is “Clear,”.

And the pH ([2]; Week 1, PA 11/PP bag, 75% RH)?
Its pH is 5.10.

What about the “Impurities by HPLC (%)” value [2, 7] of the same compound?
The value was 0.60%.

And the “L-OHP titre/standard (%)” value [2, 7]?
The value was 100.1%.

What about the “Oxalic acid titre (%)” value [2, 7] of the same compound?
The value was <0.1%.

And the “Appearance of the solution” value ([2]; Week 2, PA 11/PP bag, 75% RH)?
Its value is “Clear,”.

What about the pH ([2]; Week 2, PA 11/PP bag, 75% RH) of the same compound?
Its pH is 5.24.

And the “Impurities by HPLC (%)” value [2, 8]?
The value was 0.50%.

And the “L-OHP titre/standard (%)” value [2, 8]?
Its value is 100.0%.

What about the “Oxalic acid titre (%)” value [2, 8] of the same compound?
The value was <0.1%.

What about the “Appearance of the solution” value ([2]; Week 3, PA 11/PP bag, 75% RH) of the same compound?
The value was “Clear,”.

What about the pH ([2]; Week 3, PA 11/PP bag, 75% RH) of the same compound?
The pH was 5.22.

What about the “Impurities by HPLC (%)” value [2, 9] of the same compound?
Its value is 0.50%.

What about the “L-OHP titre/standard (%)” value [2, 9] of the same compound?
The value was 100.9%.

And the “Oxalic acid titre (%)” value [2, 9]?
The value was <0.1%.

And the “Appearance of the solution” value ([2]; Week 4, PA 11/PP bag, 75% RH)?
Its value is “Clear,”.

And the “Impurities by HPLC (%)” value [2, 10]?
Its value is 0.48%.

What about the “L-OHP titre/standard (%)” value [2, 10] of the same compound?
Its value is 99.3%.

What about the “Oxalic acid titre (%)” value [2, 10] of the same compound?
The value was <0.1%.

What about the “Appearance of the solution” value ([2]; Week 5, PA 11/PP bag, 75% RH) of the same compound?
Its value is “Clear,”.

What about the pH ([2]; Week 5, PA 11/PP bag, 75% RH) of the same compound?
The pH was 5.23.

What about the “Impurities by HPLC (%)” value [2, 11] of the same compound?
Its value is 0.45%.

And the “L-OHP titre/standard (%)” value [2, 11]?
The value was 97.7%.

And the “Oxalic acid titre (%)” value [2, 11]?
Its value is <0.1%.

What about the “Appearance of the solution” value ([2]; Week 12, PA 11/PP bag, 75% RH) of the same compound?
Its value is “Clear,”.

What about the pH ([2]; Week 12, PA 11/PP bag, 75% RH) of the same compound?
Its pH is 5.35.

What about the “Impurities by HPLC (%)” value [2, 12] of the same compound?
Its value is 0.40%.

And the “L-OHP titre/standard (%)” value [2, 12]?
The value was 99.3%.

What about the “Oxalic acid titre (%)” value [2, 12] of the same compound?
Its value is <0.1%.

And the “period of stability of the liquid solution packed in a flexible bag” value ([2]; liquid solution in flexible bag)?
Its value is “stable for a period extending to more than three months, and even to more than six months; also recorded: stable for at least one year”.

And the “appearance of the solution over the whole period” value ([2]; observed for twelve months, flexible bag)?
The value was “clarity and the absence of coloration”.

What about the “stability compared with solution packed in a glass bottle” value ([2]; same conditions, FIG. 6 vs FIG. 7) of the same compound?
Its value is “stability analogous”.
